This is an account of results in paper PMC7361990, “Molecular Basis for Ser/Thr Specificity in PKA Signaling” (Cells, 2020).

The target of one experiment is T1, PKA Cα F187I (Homo sapiens, UniProt P17612, F188I).
T1 construct: made in house
Kind of experiment: Coupled spectrophotometric kinase assay. Format: biochemical. The settings on record: mean ± SD of at least three independent measurements; for Km / kcat: 20 nM kinase with S-Kemptide, 10 nM with T-Kemptide, SD; for kcat/KM: catalytic efficiency. On the procedure: (§1) To determine the Michaelis-Menten constant (KM) and the turnover number (kcat) of purified PKA Cα wt and the DFG+1 mutants for the peptide substrate Kemptide, a coupled spectrophotometric assay was used. As we were interested in the substrate specificity of the kinase, we tested two different peptide substrates: S-Kemptide (LRRASLG) as a serine substrate and T-Kemptide (LRRATLG) as a threonine substrate (GeneCust, Boynes, France). 50 nM PKA Cα wt were used when measured with T-Kemptide and 20 nM wt, F187I, or F187T when measured with S-Kemptide. In all other assays, the final kinase concentration was 10 nM of the respective kinase. All kinases were measured with a minimum of three independent replicates. The calculated turnover was plotted against the […] and analyzed with GraphPad Prism 8.0 (GraphPad Software, San Diego, CA, USA).

The target of the next experiment is T2, PKA Cα F187T (Homo sapiens, UniProt P17612, F188T).
T2 construct: made in house
The experiment can be described thus: Coupled spectrophotometric kinase assay. The settings on record: mean ± SD of at least three independent measurements; for Km / kcat: 20 nM kinase with S-Kemptide, 10 nM with T-Kemptide, SD; for kcat/KM: catalytic efficiency. Format: biochemical. How it is done:
as §1

The target in another experiment is T3, PKA Cα wt (Homo sapiens, UniProt P17612).
T3 construct: made in house
Kind of experiment: Coupled spectrophotometric kinase assay. Format: biochemical. The settings on record: for Km / kcat: 20 nM kinase with S-Kemptide, 50 nM with T-Kemptide, SD; for Km / kcat / kcat/KM: mean ± SD of at least three independent measurements; for kcat/KM: catalytic efficiency. How it is done: as §1

For the next experiment, the system named is PKA. The settings on record: cited from earlier work. The source says:
The PKA C subunit is a classic example for a Ser/Thr kinase with serine specificity and this preference is highly conserved among different species. PKA can select target substrates according to the consensus sequence RRXS*/T*Y, where X is any residue, and Y is a hydrophobic residue.

The Km is the substrate concentration at which the rate is half of its maximum. By kcat is commonly meant the maximal rate divided by the concentration of active sites. “LRRATLG [T-Kemptide, LRRATLG, threonine peptide substrate]”: on PKA Cα F187I, the Km turned out to be 19.8 ± 3.3 µM, the kcat worked out at 43.0 ± 4.7 s⁻¹ and the kcat/KM is recorded as 22.1 ± 4.5 ×10^5 M^−1s^−1. In addition, on PKA Cα F187T, the Km came out at 25 ± 3.4 µM, the kcat was 37.1 ± 4.5 s⁻¹ and the kcat/KM is reported as 14.9 ± 0.6 ×10^5 M^−1s^−1. Moreover, at PKA Cα wt, the Km was found to be 861 ± 184 µM, the kcat was determined as 7.5 ± 0.8 s⁻¹ and the kcat/KM is recorded as 0.09 ± 0.02 ×10^5 M^−1s^−1.
For “LRRASLG [S-Kemptide, heptapeptide (LRRASLG), canonical serine substrate of PKA derived from the porcine liver pyruvate kinase]”, the figures for the Km in the experiment with PKA Cα F187I, in the experiment with PKA Cα F187T and with PKA Cα wt were 92.2 ± 3.8 µM, 23 ± 3.1 µM and 19.8 ± 3.9 µM, respectively. The kcat came out at 25.4 ± 5.8 s⁻¹ with PKA Cα F187I, 15.7 ± 0.3 s⁻¹ with PKA Cα F187T and 19.8 ± 1.0 s⁻¹ with PKA Cα wt. For the same substance, the kcat/KM was 2.8 ± 0.8 ×10^5 M^−1s^−1 with PKA Cα F187I, 6.9 ± 1.2 ×10^5 M^−1s^−1 with PKA Cα F187T and 10.3 ± 1.7 ×10^5 M^−1s^−1 with PKA Cα wt. In addition, in the experiment with PKA Cα wt (S-Kemptide versus T-Kemptide), the “higher catalytic efficiency (kcat/KM) for the serine substrate peptide compared to T-Kemptide” value is listed as “more than 100 fold”.
In the case of “GRTGRRNSI [peptide derived from PKI with a serine introduced at the P0 position]”, the “higher catalytic efficiency than Kemptide” value in the experiment with PKA is on record as “more than 70 fold”.
